According to ChEMBL document CHEMBL1201862, “PubChem BioAssay data set” (2004):
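Values below derive from 48-hour exposures of cells grown in 96-well plates, with endpoints linearly interpolated between the two concentrations bracketing the appropriate inhibition level. Abbreviation: GI50, concentration required for 50% inhibition of growth.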 Calls of active or inactive are those of the source. No stated cut-off is given here; in the data, active = GI50 up to about 1.1 µM and inactive = higher.

Tests used:
Experiment in all cases: DTP human tumour cell line panel, 48 h
ACHN = test system: ACHN
DU-145 = test system: DU-145
HL-60 = test system: HL-60
HT-29 = test system: HT-29
Hs-578T = test system: Hs-578T
IGROV-1 = test system: IGROV-1
KM12 = test system: KM12
LOX IMVI = test system: LOX IMVI
M14 = test system: M14
MCF7 = test system: MCF7
MDA-N = test system: MDA-N
MOLT-4 = test system: MOLT-4
OVCAR-3 = test system: OVCAR-3
RPMI-8226 = test system: RPMI-8226
SF-268 = test system: SF-268
SF-295 = test system: SF-295
SK-MEL-28 = test system: SK-MEL-28
SK-MEL-2 = test system: SK-MEL-2
SNB-75 = test system: SNB-75
SW-620 = test system: SW-620

Measured: GI50

O=c1c2ncn(COCCCl)c2n(-c2ccccc2)c(=S)n1-c1ccccc1
inactive: ACHN > 100 µM | DU-145 > 100 µM | HL-60 > 100 µM | HT-29 > 100 µM | Hs-578T > 100 µM | IGROV-1 > 100 µM | KM12 > 100 µM | LOX IMVI > 100 µM | M14 > 100 µM | MCF7 > 100 µM | MDA-N > 100 µM | MOLT-4 > 100 µM | OVCAR-3 > 100 µM | RPMI-8226 79.8 µM | SF-268 > 100 µM | SF-295 > 100 µM | SK-MEL-28 > 100 µM | SK-MEL-2 > 100 µM | SNB-75 4.7 µM | SW-620 > 100 µM

Cc1cn(C2CC(OC(=O)c3ccc(Cl)cc3)C(COC(=O)c3ccc(Cl)cc3)O2)c(=O)[nH]c1=O (stereo not given)
inactive: ACHN > 100 µM | DU-145 > 100 µM | HL-60 > 100 µM | HT-29 > 100 µM | Hs-578T > 100 µM | IGROV-1 > 100 µM | KM12 > 100 µM | LOX IMVI > 100 µM | M14 > 100 µM | MCF7 > 100 µM | MDA-N > 100 µM | MOLT-4 > 100 µM | OVCAR-3 > 100 µM | RPMI-8226 > 100 µM | SF-268 > 100 µM | SF-295 > 100 µM | SK-MEL-28 > 100 µM | SK-MEL-2 > 100 µM | SNB-75 > 100 µM | SW-620 > 100 µM

CC(NC(=O)C1(N)CCCC1)C(=O)O (stereo not given)
inactive: ACHN > 100 µM | DU-145 > 100 µM | HL-60 > 100 µM | HT-29 > 100 µM | Hs-578T > 100 µM | IGROV-1 > 100 µM | KM12 > 100 µM | LOX IMVI > 100 µM | M14 > 100 µM | MCF7 > 100 µM | MDA-N > 100 µM | MOLT-4 > 100 µM | OVCAR-3 > 100 µM | RPMI-8226 > 100 µM | SF-268 > 100 µM | SF-295 > 100 µM | SK-MEL-28 > 100 µM | SK-MEL-2 > 100 µM | SNB-75 > 100 µM | SW-620 > 100 µM

c1ccc(COC2NCCN2Cc2ccccc2)cc1 (stereo not given)
inactive: ACHN > 100 µM | DU-145 > 100 µM | HL-60 69 µM | HT-29 > 100 µM | Hs-578T 5.64 µM | IGROV-1 > 100 µM | KM12 > 100 µM | LOX IMVI > 100 µM | M14 > 100 µM | MCF7 > 100 µM | MDA-N > 100 µM | MOLT-4 > 100 µM | OVCAR-3 > 100 µM | RPMI-8226 > 100 µM | SF-268 > 100 µM | SF-295 > 100 µM | SK-MEL-28 > 100 µM | SK-MEL-2 > 100 µM | SNB-75 97.7 µM | SW-620 > 100 µM
